In ChEMBL document CHEMBL3792355, “Novel pyrazole derivatives with oxa/thiadiazolyl, pyrazolyl moieties and pyrazolo[4,3-d]-pyrimidine derivatives as potential antimicrobial and anticancer agents” (Bioorg Med Chem Lett, 2016):
pIC50: −log10 of the molar value. Converted amounts (≈) assume the structure as drawn.

Columns and labels:
Escherichia coli [1] = experiment: Antimicrobial activity against Escherichia coli ATCC 25922 at 1 mg/ml incubated for 24 hrs by cup diffusion assay; format: functional; conditions: ATCC 25922, 24 h, read-out: DIZ
Pseudomonas aeruginosa [2] = experiment: Antimicrobial activity against Pseudomonas aeruginosa ATCC 27853 at 1 mg/ml incubated for 24 hrs by cup diffusion assay; format: functional; conditions: ATCC 27853, 24 h, read-out: DIZ
HT-29 = experiment: cells; conditions: Homo sapiens, HT-29, 48 h
HepG2 = experiment: cells; conditions: Homo sapiens, HepG2, 48 h
Lactococcus lactis [3] = experiment: Antimicrobial activity against Streptococcus lactis ATCC 14591 at 1 mg/ml incubated for 24 hrs by cup diffusion assay; format: functional; conditions: ATCC 14591, 24 h, read-out: DIZ
Staphylococcus aureus [4] = experiment: Antimicrobial activity against Staphylococcus aureus ATCC 25923 incubated for 24 hrs by CLSI/NCCLS protocol based method; format: functional; conditions: ATCC 25923, 24 h
Candida albicans [5] = experiment: Antimicrobial activity against Candida albicans ATCC 14154 at 1 mg/ml incubated for 24 hrs by cup diffusion assay; format: functional; conditions: for zone of inhibition at 1000 µg/mL: ATCC 14154, 24 h, read-out: DIZ
MCF7 = experiment: Growth inhibition of human MCF7 cells incubated for 48 hrs by MTT assay; format: functional, cell-based; conditions: MCF7, 48 h
Escherichia coli [6] = experiment: Antimicrobial activity against Escherichia coli ATCC 25922 incubated for 24 hrs by CLSI/NCCLS protocol based method; format: functional; conditions: ATCC 25922, 24 h
Staphylococcus aureus [7] = experiment: Antimicrobial activity against Staphylococcus aureus ATCC 25923 at 1 mg/ml incubated for 24 hrs by cup diffusion assay; format: functional; conditions: ATCC 25923, 24 h, read-out: DIZ
Aspergillus flavus [8] = experiment: Antimicrobial activity against Aspergillus flavus ATCC 23554 at 1 mg/ml incubated for 24 hrs by cup diffusion assay; format: functional; conditions: for zone of inhibition at 1000 µg/mL: ATCC 23554, 24 h, read-out: DIZ
Lactococcus lactis [9] = experiment: Antimicrobial activity against Streptococcus lactis ATCC 14591 incubated for 24 hrs by CLSI/NCCLS protocol based method; format: functional; conditions: ATCC 14591, 24 h
Pseudomonas aeruginosa [10] = experiment: Antimicrobial activity against Pseudomonas aeruginosa ATCC 27853 incubated for 24 hrs by CLSI/NCCLS protocol based method; format: functional; conditions: ATCC 27853, 24 h
Aspergillus flavus [11] = experiment: Antimicrobial activity against Aspergillus flavus ATCC 23554 incubated for 24 hrs by CLSI/NCCLS protocol based method; format: functional
Candida albicans [12] = experiment: Antimicrobial activity against Candida albicans ATCC 14154 incubated for 24 hrs by CLSI/NCCLS protocol based method; format: functional

Compound | zone of inhibition at 1000 µg/mL (Escherichia coli [1]) | zone of inhibition at 1000 µg/mL (Pseudomonas aeruginosa [2]) | pIC50 (HT-29) | pIC50 (HepG2) | zone of inhibition at 1000 µg/mL (Lactococcus lactis [3]) | MIC (Staphylococcus aureus [4]) | zone of inhibition at 1000 µg/mL (Candida albicans [5]) | pIC50 (MCF7) | MIC (Escherichia coli [6]) | zone of inhibition at 1000 µg/mL (Staphylococcus aureus [7]) | zone of inhibition at 1000 µg/mL (Aspergillus flavus [8]) | MIC (Lactococcus lactis [9]) | MIC (Pseudomonas aeruginosa [10]) | MIC (Aspergillus flavus [11]; ATCC 23554, 24 h) | MIC (Candida albicans [12]; ATCC 14154, 24 h) | MIC (Aspergillus flavus [11]) | inhibition zone (IZ) (Candida albicans [5]) | inhibition zone (IZ) (Aspergillus flavus [8]) | MIC (Candida albicans [12])
Cc1cc(C)n(C(=O)c2[nH]nc(-c3ccc(Cl)cc3)c2N)n1 | 22 mm | 20 mm | 5.84 | 5.79 | 30 mm | 25 mg/L (≈ 79.2 µM) | 18 mm | 5.84 | 20 mg/L (≈ 63.3 µM) | 32 mm | 26 mm | 15 mg/L (≈ 47.5 µM) | 15 mg/L (≈ 47.5 µM) |  |  |  |  |  | 
CC1=NN(C(=O)c2[nH]nc(-c3ccc(Cl)cc3)c2N)C(=O)C1 | 22 mm | 20 mm | 5.56 | 5.60 | 26 mm | 30 mg/L (≈ 94.4 µM) | 18 mm | 5.60 | 25 mg/L (≈ 78.7 µM) | 32 mm | 35 mm | 20 mg/L (≈ 62.9 µM) | 20 mg/L (≈ 62.9 µM) | 40 mg/L (≈ 126 µM) | 35 mg/L (≈ 110 µM) |  |  |  | 
Cc1nc(Cl)c2[nH]nc(-c3ccc(Cl)cc3)c2n1 | 12 mm | 10 mm | 5.82 | 5.79 | 15 mm | 40 mg/L (≈ 143 µM) | 22 mm | 5.75 | 50 mg/L (≈ 179 µM) | 18 mm | 25 mm | 35 mg/L (≈ 125 µM) | 35 mg/L (≈ 125 µM) |  | 22 mg/L (≈ 78.8 µM) |  |  |  | 
Cc1nn(C(=O)c2[nH]nc(-c3ccc(Cl)cc3)c2N)c(C)c1Cl | 15 mm | 13 mm | 5.96 | 6.01 | 16 mm | 10 mg/L (≈ 28.6 µM) | 16 mm | 6.11 | 15 mg/L (≈ 42.8 µM) | 15 mm | 20 mm | 5 mg/L (≈ 14.3 µM) | 10 mg/L (≈ 28.6 µM) | 50 mg/L (≈ 143 µM) | 45 mg/L (≈ 128 µM) |  |  |  | 
Cc1csc(NNC(=O)c2[nH]nc(-c3ccc(Cl)cc3)c2N)n1 | 16 mm | 12 mm | 6.38 | 6.25 | 22 mm | 15 mg/L (≈ 43 µM) | 26 mm | 6.66 | 20 mg/L (≈ 57.3 µM) | 28 mm | 28 mm | 10 mg/L (≈ 28.7 µM) | 15 mg/L (≈ 43 µM) | 45 mg/L (≈ 129 µM) | 40 mg/L (≈ 115 µM) |  |  |  | 
Nn1c(=S)[nH]c2c(-c3ccc(Cl)cc3)n[nH]c2c1=O | 8 mm | 10 mm | 5.88 | 5.81 | 15 mm | 20 mg/L (≈ 68.1 µM) | 15 mm | 6.08 | 20 mg/L (≈ 68.1 µM) | 20 mm | 25 mm | 20 mg/L (≈ 68.1 µM) | 15 mg/L (≈ 51.1 µM) | 40 mg/L (≈ 136 µM) | 40 mg/L (≈ 136 µM) |  |  |  | 
Cc1nc2c(-c3ccc(Cl)cc3)n[nH]c2c2nnnn12 | 10 mm | 8 mm | 6.54 | 6.44 | 20 mm | 20 mg/L (≈ 70 µM) | 22 mm | 6.89 | 10 mg/L (≈ 35 µM) | 18 mm | 26 mm | 10 mg/L (≈ 35 µM) | 15 mg/L (≈ 52.5 µM) |  | 22 mg/L (≈ 77 µM) |  |  |  | 
NC(=S)NNC(=O)c1[nH]nc(-c2ccc(Cl)cc2)c1N | 22 mm | 16 mm | 5.25 | 5.39 | 30 mm | 30 mg/L (≈ 96.5 µM) | 20 mm | 5.36 | 25 mg/L (≈ 80.4 µM) | 34 mm | 25 mm | 35 mg/L (≈ 113 µM) | 40 mg/L (≈ 129 µM) | 45 mg/L (≈ 145 µM) | 50 mg/L (≈ 161 µM) |  |  |  | 
NYSTATIN |  |  |  |  |  |  |  |  |  |  |  |  |  |  |  | 25 mg/L | 25 mm | 30 mm | 20 mg/L
CO/N=C(\C(=O)N[C@@H]1C(=O)N2C(C(=O)O)=C(COC(C)=O)CS[C@H]12)c1csc(N)n1 [CEFOTAXIME] | 26 mm | 18 mm |  |  | 30 mm | 15 mg/L (≈ 32.9 µM) |  |  | 13 mg/L (≈ 28.5 µM) | 31 mm |  | 12 mg/L (≈ 26.3 µM) | 10 mg/L (≈ 22 µM) |  |  |  |  |  | 
